Results as given in PubChem BioAssay AID1645866 (Buhrlage Lab, Dana-Farber Cancer Institute and Novartis …, 2021).
Calls of active or inactive are those of the source.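 Rule for the calls: active = in confirmatory dose-response testing, peak deubiquitinase inhibition of 30% or more; inactive = the rest.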

molecular target: Ubiquitin carboxyl-terminal hydrolase 28 (Homo sapiens) (UniProt Q96RU2); experiment: Concentration-response biochemical assay confirming initial hits as inhibitors of ubiquitin-specific protease 28 (AID 1645866); details: purified USP28, ubiquitin-rhodamine fluorescence, 30 min
Sequence (Q96RU2 whole entry, looked up): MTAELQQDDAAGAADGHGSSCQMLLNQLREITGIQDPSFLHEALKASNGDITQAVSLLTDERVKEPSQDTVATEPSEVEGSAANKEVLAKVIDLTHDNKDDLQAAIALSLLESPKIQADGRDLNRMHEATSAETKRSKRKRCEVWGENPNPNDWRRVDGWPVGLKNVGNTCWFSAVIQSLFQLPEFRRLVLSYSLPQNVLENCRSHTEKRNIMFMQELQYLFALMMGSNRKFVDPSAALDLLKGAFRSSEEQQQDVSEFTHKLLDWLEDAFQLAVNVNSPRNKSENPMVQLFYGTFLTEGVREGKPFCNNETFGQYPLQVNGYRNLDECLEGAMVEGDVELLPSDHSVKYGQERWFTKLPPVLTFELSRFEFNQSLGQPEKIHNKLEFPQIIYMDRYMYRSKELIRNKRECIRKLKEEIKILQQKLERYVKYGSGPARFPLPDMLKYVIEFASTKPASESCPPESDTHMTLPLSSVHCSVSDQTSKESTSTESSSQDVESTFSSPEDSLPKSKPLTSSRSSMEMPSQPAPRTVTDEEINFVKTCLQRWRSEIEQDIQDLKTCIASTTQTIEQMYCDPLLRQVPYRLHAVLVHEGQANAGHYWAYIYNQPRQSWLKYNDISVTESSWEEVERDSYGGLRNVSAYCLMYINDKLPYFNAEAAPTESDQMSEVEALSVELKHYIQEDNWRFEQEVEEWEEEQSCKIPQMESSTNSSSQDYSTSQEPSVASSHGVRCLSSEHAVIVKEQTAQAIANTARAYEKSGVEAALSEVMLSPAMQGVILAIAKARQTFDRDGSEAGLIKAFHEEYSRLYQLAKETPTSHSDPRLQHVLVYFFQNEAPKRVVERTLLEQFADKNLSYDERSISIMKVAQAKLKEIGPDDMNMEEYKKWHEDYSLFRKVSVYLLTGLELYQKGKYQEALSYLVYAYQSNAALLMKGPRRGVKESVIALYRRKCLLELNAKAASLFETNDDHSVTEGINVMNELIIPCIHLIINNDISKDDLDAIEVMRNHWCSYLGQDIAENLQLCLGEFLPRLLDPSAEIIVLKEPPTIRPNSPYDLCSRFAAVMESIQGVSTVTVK

IC50	Compound
18.7 µM	CC(=O)c1sc(NC(=O)/C=C/c2ccccc2)nc1-c1ccccc1
> 50 µM (inactive)	COc1cccc(-c2nc3cnccn3c2NCc2ccc3c(c2)OCO3)c1
> 50 µM (inactive)	C=C(NC(=O)C(=C)NC(=O)c1csc(C2=N[C@@H]3c4csc(n4)[C@H]4NC(=O)c5csc(n5)[C@H]([C@](C)(O)[C@@H](C)O)NC(=O)C5CSC(=N5)/C(=C/C)NC(=O)C([C@@H](C)O)NC(=O)c5csc(n5)[C@]3(CC2)NC(=O)[C@H](C)NC(=O)C(=C)NC(=O)[C@H](C)NC(=O)C([C@@H](C)CC)NC2C=Cc3c(C(C)O)cc(nc3[C@H]2O)C(=O)OC4C)n1)C(N)=O (some centres not stated)
> 50 µM (inactive)	O=C(NCc1ccccc1)c1ccc(-c2ccc(N3CCCC3)nn2)cc1
7.33 µM	COc1cccc(NC(=O)c2nnn(-c3ccccc3)n2)c1
> 50 µM (inactive)	Cc1ccc(NC(=O)c2cc(=O)n(C)c3c2c(=O)n(C)c(=O)n3C)c(C)c1
14 µM	CCC(=O)Nc1ccccc1-c1nc2ccccc2n(CC(=O)Nc2cc(OC)ccc2OC)c1=O
38 µM	COc1ccc(CN(C(=O)c2cc(-c3ccc(C)cc3)on2)C2CCS(=O)(=O)C2)cc1 (configuration not stated)
> 50 µM (inactive)	O=C(c1ccnn1-c1ccc2ccc(-c3ccncc3)cn12)N1CCCC1
13.4 µM	Cc1cc(C(=O)Nc2cc(C)n(Cc3ccc(Cl)cc3)n2)no1
2.79 µM	C[C@@H]1OC2=C(C(=O)c3cccc(O)c3C2=O)[C@H](O)[C@@H]1O
> 50 µM (inactive)	Cc1ccc(C(=O)N2CCCC3(C2)Nc2cccnc2NC3=NC2CCCC2)s1 (configuration not stated)
0.113 µM	O=C(COC(=O)c1ccc(CN2CCCC2=O)cc1)c1ccc2c(c1)OCCO2
13.5 µM	Cc1ccc2[nH]c(=O)c(CN(CC3COCCO3)S(=O)(=O)c3ccc(F)cc3)cc2c1 (configuration not stated)
6.28 µM	COc1cccc(NC(=O)Nc2ccc(CCc3nc4ccccc4[nH]3)cc2)c1
6.02 µM	Cc1ccc(NC(=O)c2ccc(Nc3nnc(C)c4ccccc34)cc2)cc1
> 50 µM (inactive)	COc1ncccc1CN1CCn2c(Cn3cccn3)cnc2C1C (configuration not stated)
1.19 µM	O=C(Nc1nnc2n1CCCS2)c1cccc(Cl)c1
23.7 µM	Cc1nc(NCc2ccccn2)c2cc(-c3ccccc3)sc2n1

IC50	Compound
36.5 µM	O=C(NC1(O)C(=O)c2ccccc2C1=O)c1ccc(-c2csnn2)cc1
26.8 µM	Cc1nc(-c2ccccc2F)sc1C(=O)Nc1cccnc1
> 50 µM (inactive)	FC(F)(F)c1ccccc1CCN1CCc2nc3ccc(Cl)cc3cc2C1
25.2 µM	Cc1ccc(NC(=O)c2ccc3c(c2)N(S(C)(=O)=O)CC3)cc1
> 50 µM (inactive)	O=C(CCc1nnc2n(Cc3ccc(F)cc3)c(=O)c3ccccc3n12)N1CCN(c2ccccn2)CC1
> 50 µM (inactive)	COc1cccc(N2CCN(C(=O)c3cc(NC(C)=O)cc4nc(C)ccc34)CC2)c1
> 50 µM (inactive)	O=C(NCc1cccnc1)c1cnn2c(C(F)(F)F)cc(-c3ccccc3)nc12
> 50 µM (inactive)	CC(C)N1CC[C@@H]2[C@H](C1)CN2C(=O)Nc1cccc(F)c1
22 µM	CCn1c(SCc2cccc(C)c2)nnc1-c1cnccn1
6.69 µM	COc1cccc(NC(=O)c2ccc(-c3csc(C)n3)cc2)c1
32.9 µM	Cc1ccc(-c2nc(NC(=O)Nc3ccc(Cl)cc3)sc2C)cc1
> 50 µM (inactive)	C=C1CCC2[C@](C)(CCC[C@]2(C)C(=O)OC)[C@H]1CCc1ccoc1CNC(C)C (some centres not stated)
12.4 µM	COc1ccc(NC(=O)Cn2c(CS(=O)(=O)c3ccc(C)cc3)nc3ccccc32)cc1
1.37 µM	O=C(NCCc1ccccc1)c1nnn(Cc2cccc(Cl)c2)c1-n1cccc1
7.27 µM	Cc1cc(N2CCN(c3ncccn3)CC2)nc2ccc(NC(=O)c3ccncc3)cc12
35.1 µM	Cc1ccccc1C(=O)NCCn1cc(SCC(=O)Nc2ccc3c(c2)OCCO3)c2ccccc21
14.5 µM	COc1ccc(NC(=O)C2CC(=O)Nc3c(-c4ccc(Cl)cc4)cnn32)c(OC)c1 (configuration not stated)
9.5 µM	CC(=O)N1CCc2cc(S(=O)(=O)NC(Cc3ccccc3)C(=O)Nc3cccc(Cl)c3C)ccc21 (configuration not stated)
